pIC50: −log10 of the molar value. Like-named read-outs stand apart in the source and are kept apart here.

Assay [1] relates to β-catenin-TCF-mediated reporter transcription activity in Colo 205 cells. Briefly: Colo 205 reporter assay (TCF/LEF luciferase). Type of assay: cell-based. To be noted: five hours after addition of compound. A digest of the protocol:
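Luciferase signal from a TCF/LEF-driven reporter, stably integrated in Colo 205 colon cancer cells, was measured 5 h after compound addition.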
(In general: In a reporter assay the amount or activity of a reporter protein is the signal.)

The subject of assay [2] is Hek293 WFS1 over-expressor. Put plainly: In vitro cell viability (CellTiter-Glo), Hek293 WFS1 over-expressor. It is filed as cell-based. To be noted: read-out: Hek293 WFS1 viability. A digest of the protocol: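 HEK293 cells stably overexpressing WFS1 via retroviral transduction (puromycin-selected), with empty-vector cells as counterpart, plated 1,000/well. Compounds added at various concentrations after overnight attachment; viability by CellTiter-Glo luminescence after 96 h, reported as IC50.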
On the technique in general: ATP-based viability assays read luminescence as a measure of living cells.

The mark [3] stands for this setting: Homo sapiens, COLO 205, 5 h, Colo 205 TCF/LEF luciferase reporter, read-out: TCF reporter Colo205 IC50.
Where [4] appears, read: Homo sapiens, HEK293, Hek293 WFS1 over-expressing cells.
Setting [5] is: Homo sapiens, COLO 205, 5 h, Colo 205 cells with stably transfected TCF/LEF luciferase reporter, read-out: TCF reporter Colo205.

Take `Cc1nc(N[C@H]2C[C@H](Oc3ccnc(C(F)(F)F)c3)C2)nc2c1NC(=O)[C@H](C)N2C` [Compound 335, (7S)-4,7,8-trimethyl-2-((trans-3-((2-(trifluoromethyl)pyridin-4-yl)oxy)cyclobutyl)amino)-7,8-dihydropteridin-6(5H)-one]: the values for the pIC50 in assay [1] (setting [3]) and in assay [2] (setting [4]) were over 6.52 and over 7.22, respectively.

With `Cc1nc(N[C@H]2C[C@@H](COc3ccc(C(F)(F)F)cn3)C2)nc2c1NC(=O)[C@H](C)N2C` [Compound 356, (7S)-4,7,8-trimethyl-2-((cis-3-(((5-(trifluoromethyl)pyridin-2-yl)oxy)methyl)cyclobutyl)amino)-7,8-dihydropteridin-6(5H)-one], the pIC50 in assay [1] (setting [3]) was 6.00 to 6.52; in assay [2] (setting [4]) it was over 7.22.

`Cc1nc(N[C@H]2C[C@H](Oc3ccc(F)nc3)C2)nc2c1NC(=O)[C@H](C)N2C` [Compound 357, (7S)-2-((trans-3-((6-fluoropyridin-3-yl)oxy)cyclobutyl)amino)-4,7,8-trimethyl-7,8-dihydropteridin-6(5H)-one]: the pIC50 in assay [1] (setting [3]) was 5.30 to 6.00; in assay [2] (setting [4]), 6.22 to 7.22.

Turning to `Cc1nc(NCc2cnn(Cc3ccc(C(F)(F)F)nc3)c2)nc2c1NC(=O)[C@H](C(C)C)N2C` [Compound 383, (7S)-7-isopropyl-4,8-dimethyl-2-(((1-((6-(trifluoromethyl)pyridin-3-yl)methyl)-1H-pyrazol-4-yl)methyl)amino)-7,8-dihydropteridin-6(5H)-one], the pIC50 in assay [1] (setting [3]) was over 6.52; in assay [2] (setting [4]), over 7.22.

Consider `Cc1nc(NCc2cnn(Cc3ccc(F)nc3)c2)nc2c1NC(=O)[C@H](C(C)C)N2C` [Compound 384, (7S)-2-(((1-((6-fluoropyridin-3-yl)methyl)-1H-pyrazol-4-yl)methyl)amino)-7-isopropyl-4,8-dimethyl-7,8-dihydropteridin-6(5H)-one], for which the pIC50 in assay [1] (setting [3]) is over 6.52; in assay [2] (setting [4]), over 7.22.

In the case of `Cc1nc(NCc2cnn(Cc3ccc(C(F)(F)F)nc3)c2)nc2c1NC(=O)[C@H](C)N2C(C)C` [Compound 385, (7S)-8-isopropyl-4,7-dimethyl-2-(((1-((6-(trifluoromethyl)pyridin-3-yl)methyl)-1H-pyrazol-4-yl)methyl)amino)-7,8-dihydropteridin-6(5H)-one], the pIC50 in assay [1] (setting [3]) was over 6.52; in assay [2] (setting [4]), over 7.22.

Turning to `Cc1nc(NCc2cnn(Cc3ccc(C(F)(F)F)nc3)c2)nc2c1NC(=O)[C@H](C1CC1)N2C` [Compound 386, (7S)-7-Cyclopropyl-4,8-dimethyl-2-(((1-((6-(trifluoromethyl)pyridin-3-yl)methyl)-1H-pyrazol-4-yl)methyl)amino)-7,8-dihydropteridin-6(5H)-one], the pIC50 is over 6.52 in assay [1] (setting [3]) and over 7.22 in assay [2] (setting [4]).

Consider `Cc1nc(NCc2cnn(Cc3ccc(C(F)(F)F)nc3C(C)C)c2)nc2c1NC(=O)[C@H](C)N2C` [Compound 388, (7S)-2-(((1-((2-isopropyl-6-(trifluoromethyl)pyridin-3-yl)methyl)-1H-pyrazol-4-yl)methyl)amino)-4,7,8-trimethyl-7,8-dihydropteridin-6(5H)-one], for which the pIC50 is over 6.52 in assay [1] (setting [3]) and over 7.22 in assay [2] (setting [4]).

In the case of `CCN1c2nc(NCc3cnn(Cc4ccc(C(F)(F)F)nc4)c3)nc(C)c2NC(=O)[C@@H]1C` [Compound 395, (7S)-8-Ethyl-4,7-dimethyl-2-(((1-((6-(trifluoromethyl)pyridin-3-yl)methyl)-1H-pyrazol-4-yl)methyl)amino)-7,8-dihydropteridin-6(5H)-one], the pIC50 was over 6.52 in assay [1] (setting [3]) and over 7.22 in assay [2] (setting [4]).

Turning to `Cc1nc(NCc2cnn(Cc3cc(C(F)(F)F)nn3C)c2)nc2c1NC(=O)[C@H](C1CC1)N2C` [Compound 396, (7S)-7-Cyclopropyl-4,8-dimethyl-2-(((1-((1-methyl-3-(trifluoromethyl)-1H-pyrazol-5-yl)methyl)-1H-pyrazol-4-yl)methyl)amino)-7,8-dihydropteridin-6(5H)-one], the pIC50 was over 6.52 in assay [1] (setting [3]) and over 7.22 in assay [2] (setting [4]).

Turning to `Cc1nc(NCc2cnn(Cc3cc(C(F)(F)F)nn3C)c2)nc2c1NC(=O)[C@H](C(C)C)N2C` [Compound 397, (7S)-7-Isopropyl-4,8-dimethyl-2-(((1-((1-methyl-3-(trifluoromethyl)-1H-pyrazol-5-yl)methyl)-1H-pyrazol-4-yl)methyl)amino)-7,8-dihydropteridin-6(5H)-one], the figures for the pIC50 in assay [1] (setting [5]) and in assay [2] (setting [4]) were over 6.52 and over 7.22, respectively.

In the case of `Cc1nc(NCc2cnn(Cc3ccc(C(F)(F)F)nc3)c2)nc2c1NC(=O)C1(CCC1)N2C` [Compound 398, 4′,8′-dimethyl-2′-(((1-((6-(trifluoromethyl)pyridin-3-yl)methyl)-1H-pyrazol-4-yl)methyl)amino)-5′,8′-dihydro-6′H-spiro[cyclobutane-1,7′-pteridin]-6′-one], the pIC50 in assay [1] (setting [5]) was over 6.52; in assay [2] (setting [4]) it was over 7.22.

As for `Cc1nc(N(C)Cc2cnn(Cc3ccc(C(F)(F)F)nc3)c2)nc2c1NC(=O)[C@H](C)N2C` [Compound 403, (7S)-4,7,8-trimethyl-2-(methyl((1-((6-(trifluoromethyl)pyridin-3-yl)methyl)-1H-pyrazol-4-yl)methyl)amino)-7,8-dihydropteridin-6(5H)-one], the pIC50 in assay [1] (setting [5]) was at most 5.30; in assay [2] (setting [4]), at most 5.52.

Take `CC(=O)N(Cc1cnn(Cc2ccc(C(F)(F)F)nc2)c1)c1nc(C)c2c(n1)N(C)[C@@H](C)C(=O)N2` [Compound 405, (7S)-N-((1-((6-(trifluoromethyl)pyridin-3-yl)methyl)-1H-pyrazol-4-yl)methyl)-N-(4,7,8-trimethyl-6-oxo-5,6,7,8-tetrahydropteridin-2-yl)acetamide]: the pIC50 in assay [1] (setting [5]) was at most 5.30; in assay [2] (setting [4]), at most 5.52.

For `Cc1nc(NCc2cnn(Cc3ccc(Cl)nc3)c2)nc2c1NC(=O)[C@H](C(C)C)N2C` [Compound 409, (7S)-2-(((1-((6-chloropyridin-3-yl)methyl)-1H-pyrazol-4-yl)methyl)amino)-7-isopropyl-4,8-dimethyl-7,8-dihydropteridin-6(5H)-one], the pIC50 in assay [1] (setting [5]) was over 6.52; in assay [2] (setting [4]), over 7.22.

Turning to `Cc1nc(NCc2cn(Cc3ccc(C(F)(F)F)nc3)nc2Br)nc2c1NC(=O)[C@H](C)N2C` [Compound 412, (S)-2-(((3-bromo-1-((6-(trifluoromethyl)pyridin-3-yl)methyl)-1H-pyrazol-4-yl)methyl)amino)-4,7,8-trimethyl-7,8-dihydropteridin-6(5H)-one], the pIC50 in assay [1] (setting [3]) is over 6.52; in assay [2] (setting [4]) it was 6.22 to 7.22.

As to `Cc1nc(NCc2cnn(Cc3cncc(F)c3)c2)nc2c1NC(=O)[C@H](C(C)C)N2C` [Compound 415, (7S)-2-(((1-((5-fluoropyridin-3-yl)methyl)-1H-pyrazol-4-yl)methyl)amino)-7-isopropyl-4,8-dimethyl-7,8-dihydropteridin-6(5H)-one], the pIC50 was over 6.52 in assay [1] (setting [3]) and over 7.22 in assay [2] (setting [4]).

Regarding `Cc1nc(NCc2cnn(Cc3ccc(C(F)(F)F)nc3C(C)(C)O)c2)nc2c1NC(=O)[C@H](C)N2C` [Compound 416, (7S)-2-(((1-((2-(2-hydroxypropan-2-yl)-6-(trifluoromethyl)pyridin-3-yl)methyl)-1H-pyrazol-4-yl)methyl)amino)-4,7,8-trimethyl-7,8-dihydropteridin-6(5H)-one], the values for the pIC50 in assay [1] (setting [3]) and in assay [2] (setting [4]) were over 6.52 and over 7.22, respectively.

As to `Cc1nc(NCc2cnn(Cc3ccc(C(F)(F)F)nc3Cl)c2)nc2c1NC(=O)[C@H](C)N2C` [Compound 418, (7S)-2-(((1-((2-chloro-6-(trifluoromethyl)pyridin-3-yl)methyl)-1H-pyrazol-4-yl)methyl)amino)-4,7,8-trimethyl-7,8-dihydropteridin-6(5H)-one], the results for the pIC50 in assay [1] (setting [3]) and in assay [2] (setting [4]) were over 6.52 and over 7.22, respectively.

As to `Cc1nc(NCc2cnn(Cc3ccc(C(F)(F)F)nc3C(C)O)c2)nc2c1NC(=O)[C@H](C)N2C` (stereo partly drawn) [Compound 419, (7S)-2-(((1-((2-((S)-1-hydroxyethyl)-6-(trifluoromethyl)pyridin-3-yl)methyl)-1H-pyrazol-4-yl)methyl)amino)-4,7,8-trimethyl-7,8-dihydropteridin-6(5H)-one], the pIC50 in assay [1] (setting [3]) is over 6.52; in assay [2] (setting [4]) it was 6.22 to 7.22.

With `Cc1nc(NCc2cnn(Cc3ccc(F)nc3)c2)nc2c1NC(=O)[C@H](C1CC1)N2C` [Compound 421, (7S)-7-cyclopropyl-2-(((1-((6-fluoropyridin-3-yl)methyl)-1H-pyrazol-4-yl)methyl)amino)-4,8-dimethyl-7,8-dihydropteridin-6(511)-one], the pIC50 in assay [1] (Colo 205 TCF/LEF luciferase reporter, read-out: TCF reporter Colo205 IC50) is over 6.52; in assay [2] (Hek293 WFS1 over-expressing cells), 6.22 to 7.22.

On to `Cc1cc(F)ncc1Cn1cc(CNc2nc(C)c3c(n2)N(C)[C@@H](C(C)C)C(=O)N3)cn1` [Compound 423, (7S)-2-(((1-((6-fluoro-4-methylpyridin-3-yl)methyl)-1H-pyrazol-4-yl)methyl)amino)-7-isopropyl-4,8-dimethyl-7,8-dihydropteridin-6(5H)-one], for which the pIC50 in assay [1] (setting [3]) is over 6.52; in assay [2] (setting [4]) it was over 7.22.

For `Cc1nc(NCc2cnn(Cc3cnc(Cl)c(F)c3)c2)nc2c1NC(=O)[C@H](C(C)C)N2C` [Compound 424, (7S)-2-(((1-((6-chloro-5-fluoropyridin-3-yl)methyl)-1H-pyrazol-4-yl)methyl)amino)-7-isopropyl-4,8-dimethyl-7,8-dihydropteridin-6(5H)-one], the pIC50 in assay [1] (setting [3]) was over 6.52; in assay [2] (setting [4]), over 7.22.

For the origin of these results see patent publication US20230312587A1, “PTERIDINONE COMPOUNDS AND USES THEREOF” (Vertex Pharmaceutical Incorporated, priority 2018, published 2023).
